Data from patent US11912699B2, “Tau-protein targeting compounds and associated” (Arvinas Operations, Inc., priority 2019, dated 2024).

These compounds were tested against T1, Tau P301L (Homo sapiens, UniProt P10636, P618L) (assay: In vitro tau degradation assay in CHOK1 Tau P301L cells (sarkosyl insoluble tau, WES)). Conditions: CHO-K1; CHOK1 Tau P301L cells; remaining tau in sarkosyl insoluble pellet; 48 hours with test compound at 1 μM, doxycycline removed for last 24 hours; relative to DMSO doxycycline control; read-out: Tau Protein Degradation effect at 1 μM.
T1 construct: expressed in transfected cells
T1 sequence (P10636 1-441 isoform P10636-8 P301L): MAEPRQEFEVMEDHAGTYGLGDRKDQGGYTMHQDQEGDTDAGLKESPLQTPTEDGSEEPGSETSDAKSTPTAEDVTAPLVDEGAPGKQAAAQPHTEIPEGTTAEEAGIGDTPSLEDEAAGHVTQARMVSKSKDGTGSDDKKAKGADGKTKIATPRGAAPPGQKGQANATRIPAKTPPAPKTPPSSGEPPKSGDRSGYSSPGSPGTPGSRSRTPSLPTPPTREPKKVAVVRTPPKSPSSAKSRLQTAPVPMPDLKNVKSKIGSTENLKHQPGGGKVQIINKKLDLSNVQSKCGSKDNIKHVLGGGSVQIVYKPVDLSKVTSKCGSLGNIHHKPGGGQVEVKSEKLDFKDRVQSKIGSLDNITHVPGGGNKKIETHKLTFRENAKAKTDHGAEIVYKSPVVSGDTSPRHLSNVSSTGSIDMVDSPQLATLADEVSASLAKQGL
Assay type: cell-based
Description: Exemplary bifunctional molecules of the present disclosure are represented by the structures in Table 1, which includes associated data. In vitro tau protein degradation data in CHOK1 Tau P301L cells, as described below, is reported based on the remaining tau protein in the sarkosyl insoluble pellet following treatment of cells for 48 hours with test compound at the 1 μM concentration where the last 24 hours doxycycline was removed. The data are represented relative to DMSO doxycycline control: • A ≤50% of tau protein remaining (>50% of tau protein degraded) • B >50% of tau protein remaining ([…] of tau protein degraded)
Data for compounds in Table 1 was generated using in vitro tau Degradation Assay protocol as described in Methods for FIGS. 2A and 2B below.
FIGS. 2A and 2B. (2A) Tau expression was induced by addition (+) of doxycycline (1 μg/ml) to ChoK1-Tau P301L clone D1.
In vitro tau Degradation Assay for FIGS. 2A and 2B. T-Rex CHOK1 cells are maintained in Ham's F-12 Nutrient Mix (ThermoFisher) plus 10% Fetal Bovine Serum Tetracycline Negative (Corning) with 10 ug/mL Blasticidin S HCl (Gibco) and 200 ug/mL Zeocin (100 mg/mL, Invitrogen). A stable clone expressing Tau P301L in the presence of doxycycline (1 μg/ml), clone D1 was selected. Compounds were diluted to indicated concentrations and used to treat cells for the indicated times. Cells were harvested from either 96, 24, 6, or 10 cm dishes coated with Poly-D-Lysine (Corning) in ice cold PBS or Buffer H+HALT Protease and phosphatase inhibitors (Thermofisher). Sarkosyl Insoluble tau was isolated as described in Eckermann et al. and Greenberg and Davies, accordingly. WES™ capillary electrophoresis analysis was performed on the Sarkosyl Insoluble tau fraction using Tau1 antibody (Milipore) unless otherwise indicated, as specified in the manufacturers specification (ProteinSimple).

`O=C1CCC(N2C(=O)c3ccc(N4CCC(OC5CCN(C[C@H]6C[C@H](Oc7ncc(-c8ccc9c%10cnccc%10n(C(F)F)c9c8)cc7F)C6)CC5)CC4)cc3C2=O)C(=O)N1` (stereo partly shown) [Compound N637] and `O=C1CCC(N2C(=O)c3cc(F)c(OCCN4CC5(C4)CN(C[C@H]4C[C@H](Oc6ncc(-c7ccc8c9cnccc9n(C(F)F)c8c7)cc6F)C4)C5)cc3C2=O)C(=O)N1` (stereo partly shown) [Compound 646, 5-(2-(6-(((1r,3r)-3-((5-(5-(difluoromethyl)-5H-pyrido[4,3-b]indol-7-yl)-3-fluoropyridin-2-yl)oxy)cyclobutyl)methyl)-2,6-diazaspiro[3.3]heptan-2-yl)ethoxy)-2-(2,6-dioxopiperidin-3-yl)-6-fluoroisoindoline-1,3-dione] cannot be ordered by remaining activity at 1 µM: < 50% for the first, < 50% for the second.

`O=C1CCC(N2C(=O)c3cc(F)c(OCCN4CCC(O[C@H]5C[C@@H](N6CCC(c7ccc8c9cnccc9n(C(F)F)c8c7)CC6)C5)CC4)cc3C2=O)C(=O)N1` (stereo partly shown) [Compound 644] and `O=C1CCC(N2C(=O)c3cc(F)c(N4CCCN(CCC5CCN(c6ncc(-c7ccc8c9cnccc9n(C(F)F)c8c7)cc6F)CC5)CC4)cc3C2=O)C(=O)N1` (stereo not shown) [Compound 639, 5-(4-(2-(1-(5-(5-(difluoromethyl)-5H-pyrido[4,3-b]indol-7-yl)-3-fluoropyridin-2-yl)piperidin-4-yl)ethyl)-1,4-diazepan-1-yl)-2-(2,6-dioxopiperidin-3-yl)-6-fluoroisoindoline-1,3-dione] cannot be ordered by remaining activity at 1 µM: < 50% for the first, < 50% for the second.

Same assay, conditions: CHO-K1; remaining tau protein in sarkosyl insoluble pellet; CHOK1 Tau P301L cells treated 48 hours with test compound at 1 μM, doxycycline removed for the last 24 hours; relative to DMSO doxycycline control; read-out: Tau Protein Degradation effect at 1 μM

Going from `Cn1c2ccncc2c2ccc(-c3ccc(N4CC(C(=O)N5CCN(CCCCCOc6ccc7c(c6)C(=O)N(C6CCC(=O)NC6=O)C7=O)CC5)C4)nc3)cc21` (stereo not shown) [Compound 446, 2-(2,6-dioxopiperidin-3-yl)-5-((5-(4-(1-(5-(5-methyl-5H-pyrido[4,3-b]indol-7-yl)pyridin-2-yl)azetidine-3-carbonyl)piperazin-1-yl)pentyl)oxy) isoindoline-1,3-dione] to `Cn1c2ccncc2c2ccc(-c3ccc(O[C@H]4C[C@H](OCCCN5CCN(c6ccc7c(c6)C(=O)N(C6CCC(=O)NC6=O)C7=O)CC5)C4)nc3)cc21` (stereo partly shown) [Compound 343, 2-(2,6-dioxopiperidin-3-yl)-5-(4-(3-((1r,3r)-3-((5-(5-methyl-5H-pyrido[4,3-b]indol-7-yl)pyridin-2-yl)oxy)cyclobutoxy)propyl)piperazin-1-yl)isoindoline-1,3-dione], the remaining activity at 1 µM falls from > 50% to < 50%.

`Cc1cnc(Nc2ccc3cnccc3c2)cc1N1CCC(CCN2CCN(c3ccc4c(c3)C(=O)N(C3CCC(=O)NC3=O)C4=O)CC2)CC1` (stereo not shown) [Compound 447, 2-(2,6-dioxopiperidin-3-yl)-5-(4-(2-(1-(2-(isoquinolin-6-ylamino)-5-methylpyridin-4-yl)piperidin-4-yl)ethyl)piperazin-1-yl)isoindoline-1,3-dione] and `Cc1cc(Nc2ccc3nc(N4CCC(CCN5CCN(c6ccc7c(c6)C(=O)N(C6CCC(=O)NC6=O)C7=O)CC5)CC4)ccc3n2)ccn1` (stereo not shown) [Compound 584, 2-(2,6-dioxopiperidin-3-yl)-5-(4-(2-(1-(6-((2-methylpyridin-4-yl)amino)-1,5-naphthyridin-2-yl)piperidin-4-yl)ethyl)piperazin-1-yl)isoindoline-1,3-dione] cannot be ordered by remaining activity at 1 µM: < 50% for the first, < 50% for the second.

`O=C1CCC(N2C(=O)c3cccc(N4CCN(CCC5CCN(c6ncc(-c7ccc8c9cnccc9n(C(F)F)c8c7)cc6F)CC5)CC4)c3C2=O)C(=O)N1` (stereo not shown) [Compound 594, 4-(4-(2-(1-(5-(5-(difluoromethyl)-5H-pyrido[4,3-b]indol-7-yl)-3-fluoropyridin-2-yl)piperidin-4-yl)ethyl)piperazin-1-yl)-2-(2,6-dioxopiperidin-3-yl)isoindoline-1,3-dione] and `O=C1CCC(N2C(=O)c3ccc(N4CCN(C(=O)CC5CCN(c6ncc(-c7ccc8c9cnccc9n(C(F)F)c8c7)cc6F)CC5)CC4)cc3C2=O)C(=O)N1` (stereo not shown) [Compound 592, 5-(4-(2-(1-(5-(5-(difluoromethyl)-5H-pyrido[4,3-b]indol-7-yl)-3-fluoropyridin-2-yl)piperidin-4-yl)acetyl)piperazin-1-yl)-2-(2,6-dioxopiperidin-3-yl)isoindoline-1,3-dione] cannot be ordered by remaining activity at 1 µM: < 50% for the first, < 50% for the second.

`Cn1c2ccncc2c2ccc(C3CCN(CCC4CCN(c5ccc6c(c5)C(=O)N(C5CCC(=O)NC5=O)C6=O)CC4)CC3)cc21` (stereo not shown) [Compound 498, 2-(2,6-dioxopiperidin-3-yl)-5-(4-(2-(4-(5-methyl-5H-pyrido[4,3-b]indol-7-yl)piperidin-1-yl)ethyl)piperidin-1-yl)isoindoline-1,3-dione] and `Cn1c2ccncc2c2ccc(-c3ccc(O[C@H]4C[C@H](N(C)C5CC6(C5)CN(CCC5CCN(c7ccc8c(c7)C(=O)N(C7CCC(=O)NC7=O)C8=O)CC5)C6)C4)nc3)cc21` (stereo partly shown) [Compound 401, 2-(2,6-dioxopiperidin-3-yl)-5-(4-(2-(6-(methyl((1r,3r)-3-((5-(5-methyl-5H-pyrido[4,3-b]indol-7-yl)pyridin-2-yl)oxy)cyclobutyl)amino)-2-azaspiro[3.3]heptan-2-yl)ethyl)piperidin-1-yl) isoindoline-1,3-dione] cannot be ordered by remaining activity at 1 µM: < 50% for the first, < 50% for the second.

First: CN(C)c1cccc2cnc(-n3ccc4cc(N5CCC(CCN6CCN(c7cc8c(cc7F)C(=O)N(C7CCC(=O)NC7=O)C8=O)CC6)CC5)ncc43)cc12 (stereo not shown) [Compound 653, 5-(4-(2-(1-(1-(5-(dimethylamino)isoquinolin-3-yl)-1H-pyrrolo[2,3-c]pyridin-5-yl)piperidin-4-yl)ethyl)piperazin-1-yl)-2-(2,6-dioxopiperidin-3-yl)-6-fluoroisoindoline-1,3-dione]
Second: Nc1cccc2cnc(-n3ccc4cc(N5CCC(CCN6CCN(c7ccc8c(c7)C(=O)N(C7CCC(=O)NC7=O)C8=O)CC6)CC5)ncc43)cc12 (stereo not shown) [Compound 480, 5-[4-(2-[1-[1-(5-aminoisoquinolin-3-yl)pyrrolo[2,3-c]pyridin-5-yl]piperidin-4-yl]ethyl)piperazin-1-yl]-2-(2,6-dioxopiperidin-3-yl)isoindole-1,3-dione]
The remaining activity at 1 µM of the first is lower: < 50% for the first, > 50% for the second.

`Cn1c2ccncc2c2ccc(-c3ccc(O[C@H]4C[C@H](OC5CCN(CCCN6CC(Oc7ccc8c(c7)C(=O)N(C7CCC(=O)NC7=O)C8=O)C6)CC5)C4)nc3)cc21` (stereo partly shown) [Compound 388, 2-(2,6-dioxopiperidin-3-yl)-5-((1-(3-(4-((1r,3r)-3-((5-(5-methyl-5H-pyrido[4,3-b]indol-7-yl)pyridin-2-yl)oxy)cyclobutoxy)piperidin-1-yl)propyl)azetidin-3-yl)oxy) isoindoline-1,3-dione] and `O=C1CCC(N2C(=O)c3ccc(N4CCN(CC(F)(F)C5CCN(c6ccc(-c7ccc8c(c7)[nH]c7ccncc78)cn6)CC5)CC4)cc3C2=O)C(=O)N1` (stereo not shown) [Compound 569, 5-(4-(2-(1-(5-(5H-pyrido[4,3-b]indol-7-yl)pyridin-2-yl)piperidin-4-yl)-2,2-difluoroethyl)piperazin-1-yl)-2-(2,6-dioxopiperidin-3-yl)isoindoline-1,3-dione] cannot be ordered by remaining activity at 1 µM: < 50% for the first, < 50% for the second.

`O=C1CCC(N2C(=O)c3ccc(N4CCN(CCC5CCN(c6cc7ccn(-c8cc9cc(F)ccc9cn8)c7cn6)CC5)CC4)cc3C2=O)C(=O)N1` (stereo not shown) [Compound 598, 2-(2,6-dioxopiperidin-3-yl)-5-(4-(2-(1-(1-(6-fluoroisoquinolin-3-yl)-1H-pyrrolo[2,3-c]pyridin-5-yl)piperidin-4-yl)ethyl)piperazin-1-yl)isoindoline-1,3-dione] and `O=C1CCC(N2Cc3cc(N4CCN(CCC5CCN(c6ncc(-c7ccc8c9cnccc9n(C(F)F)c8c7)cc6C(F)(F)F)CC5)CC4)ccc3C2=O)C(=O)N1` (stereo not shown) [Compound 543, 3-(5-(4-(2-(1-(5-(5-(difluoromethyl)-5H-pyrido[4,3-b]indol-7-yl)-3-(trifluoromethyl)pyridin-2-yl)piperidin-4-yl)ethyl)piperazin-1-yl)-1-oxoisoindolin-2-yl)piperidine-2,6-dione] cannot be ordered by remaining activity at 1 µM: < 50% for the first, < 50% for the second.

`Cc1ncsc1-c1ccc([C@H](C)NC(=O)[C@@H]2C[C@@H](O)CN2C(=O)[C@@H](NC(=O)COCCCCCN2CCC(OC3CC(Oc4ccc(-c5ccc6c7cnccc7n(C)c6c5)cn4)C3)CC2)C(C)(C)C)cc1` (stereo partly drawn) [Compound 377, (2S,4R)-1-((S)-3,3-dimethyl-2-(2-((5-(4-((1r,3r)-3-((5-(5-methyl-5H-pyrido[4,3-b]indol-7-yl)pyridin-2-yl)oxy)cyclobutoxy)piperidin-1-yl)pentyl)oxy)acetamido)butanoyl)-4-hydroxy-N-((S)-1-(4-(4-methythiazol-5-yl)phenyl)ethyl) pyrrolidine-2-carboxamide] was tested, and the remaining activity at 1 µM was > 50%.
